#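 Tested at 5 concentrations; 48 h exposure; 96-well plates; endpoints linearly interpolated, else capped at highest concentration. TGI: total growth inhibition.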
# Legend:
# Assay in all cases: growth of human tumour cells (NCI), 48 h
# SK-MEL-28 melanoma = test system: SK-MEL-28 melanoma
# HS 578T breast = test system: HS 578T breast
# SF-539 CNS = test system: SF-539 CNS
# HOP-62 NSCLC = test system: HOP-62 NSCLC
# SK-MEL-5 melanoma = test system: SK-MEL-5 melanoma
# OVCAR-5 ovarian = test system: OVCAR-5 ovarian
# K-562 leukemia = test system: K-562 leukemia
# SF-268 CNS = test system: SF-268 CNS
# COLO 205 colon = test system: COLO 205 colon
# NCI-H460 lung = test system: NCI-H460 lung
# HOP-92 NSCLC = test system: HOP-92 NSCLC
# MOLT-4 leukemia = test system: MOLT-4 leukemia
# CCRF-CEM leukemia = test system: CCRF-CEM leukemia
# MDA-MB-435 = test system: MDA-MB-435
# MDA-MB-231 breast = test system: MDA-MB-231 breast
Structure (SMILES),TGI (SK-MEL-28 melanoma),TGI (HS 578T breast),TGI (SF-539 CNS),TGI (HOP-62 NSCLC),TGI (SK-MEL-5 melanoma),TGI (OVCAR-5 ovarian),TGI (K-562 leukemia),TGI (SF-268 CNS),TGI (COLO 205 colon),TGI (NCI-H460 lung),TGI (HOP-92 NSCLC),TGI (MOLT-4 leukemia),TGI (CCRF-CEM leukemia),TGI (MDA-MB-435),TGI (MDA-MB-231 breast)
O[C@@]1(C#Cc2ccc3c(c2)OCO3)CCC[C@H]1NCc1ccccc1,38.1 µM,50.8 µM,39.5 µM,78.2 µM,36.2 µM,> 100 µM,41.5 µM,> 100 µM,37.4 µM,69 µM,38 µM,45.1 µM,99.7 µM,50.2 µM,> 100 µM
COC(=O)[C@@H]1C[C@@H](O)CN1C(=O)c1ccc([N+](=O)[O-])cc1[N+](=O)[O-],> 100 µM,> 100 µM,> 100 µM,> 100 µM,> 100 µM,> 100 µM,> 100 µM,> 100 µM,> 100 µM,> 100 µM,> 100 µM,> 100 µM,> 100 µM,> 100 µM,> 100 µM
COC(=O)[C@@H]1CN(C(=O)CCc2ccccc2)C(=O)N1,> 100 µM,> 100 µM,> 100 µM,> 100 µM,> 100 µM,> 100 µM,> 100 µM,> 100 µM,> 100 µM,> 100 µM,> 100 µM,> 100 µM,> 100 µM,> 100 µM,> 100 µM
O=c1[nH]c2c(c(=O)[nH]1)SC(c1ccccc1)C2 (stereo not given),> 100 µM,> 100 µM,> 100 µM,> 100 µM,> 100 µM,> 100 µM,> 100 µM,> 100 µM,> 100 µM,> 100 µM,> 100 µM,> 100 µM,> 100 µM,> 100 µM,> 100 µM
O=C1C=C(c2ccccc2)OC1C1Sc2ccccc2NC1=O (stereo not given),> 100 µM,> 100 µM,> 100 µM,> 19.8 µM,38.2 µM,> 100 µM,> 28.3 µM,> 100 µM,18.5 µM,> 20.9 µM,> 87 µM,> 40.1 µM,> 24.4 µM,> 100 µM,> 57.1 µM
CSC1=NN(C(C)=O)C(C(OC(C)=O)C(OC(C)=O)C(OC(C)=O)C(COC(C)=O)OC(C)=O)S1 (stereo not given),> 100 µM,> 100 µM,> 100 µM,> 100 µM,> 100 µM,> 100 µM,> 100 µM,> 100 µM,> 100 µM,> 100 µM,> 100 µM,> 100 µM,> 100 µM,> 100 µM,> 100 µM
Cn1nnc2c(C(N)=S)ncn2c1=O,> 100 µM,> 100 µM,> 100 µM,> 100 µM,> 100 µM,> 100 µM,> 100 µM,> 100 µM,> 100 µM,> 100 µM,> 100 µM,> 100 µM,> 100 µM,> 100 µM,> 100 µM
CCc1n[nH]c(=O)n1CC,> 100 µM,> 100 µM,> 100 µM,> 100 µM,> 100 µM,> 100 µM,> 100 µM,> 100 µM,> 100 µM,> 100 µM,> 100 µM,> 100 µM,> 100 µM,> 100 µM,> 100 µM
